This note sets out measurements from ChEMBL document CHEMBL1147313, “Abrusosides A-D, four novel sweet-tasting triterpene glycosides from the leaves of Abrus precatorius” (J Nat Prod, 1989).

For the data set, the system named is Mus musculus. Description: Acute toxicity in Swiss-Webster mouse at 1 g/kg, po. The class given is organism-based. To be noted: in vivo, 1000 mg/kg.
As for `CC1=CC[C@@H]([C@@H](C)[C@H]2CC[C@@]3(C)[C@@H]4CC[C@H]5[C@](C)(C(=O)O)[C@@H](O[C@@H]6O[C@H](CO)[C@@H](O)[C@H](O)[C@H]6O[C@@H]6O[C@H](CO)[C@@H](O)[C@H](O)[C@H]6O)CC[C@@]56C[C@@]46CC[C@]23C)OC1=O` [ABRUSOSIDE C], the Activity result is “Non-toxic”.
With `COC(=O)[C@H]1O[C@@H](O[C@H]2[C@H](O[C@H]3CC[C@]45C[C@]46CC[C@]4(C)[C@@H]([C@H](C)[C@@H]7CC=C(C)C(=O)O7)CC[C@@]4(C)[C@@H]6CC[C@H]5[C@]3(C)C(=O)O)O[C@H](CO)[C@@H](O)[C@@H]2O)[C@H](O)[C@@H](O)[C@@H]1O` [ABRUSOSIDE B], the Activity result is “Non-toxic”.
Next, `CC1=CC[C@@H]([C@@H](C)[C@H]2CC[C@@]3(C)[C@@H]4CC[C@H]5[C@](C)(C(=O)O)[C@@H](O[C@@H]6O[C@H](CO)[C@@H](O)[C@H](O)[C@H]6O)CC[C@@]56C[C@@]46CC[C@]23C)OC1=O` [ABRUSOSIDE A]: “Non-toxic”; `CC1=CC[C@@H]([C@@H](C)[C@H]2CC[C@@]3(C)[C@@H]4CC[C@H]5[C@](C)(C(=O)O)[C@@H](O[C@@H]6O[C@H](CO)[C@@H](O)[C@H](O)[C@H]6O[C@@H]6O[C@H](C(=O)O)[C@@H](O)[C@H](O)[C@H]6O)CC[C@@]56C[C@@]46CC[C@]23C)OC1=O` [ABRUSOSIDE D]: “Non-toxic”.
